Results as given in ChEMBL document CHEMBL4196010, “New hydrazides derivatives of isoniazid against Mycobacterium tuberculosis: Higher potency and lower hepatocytotoxicity” (Eur J Med Chem, 2018).
In brackets after ≈: the same amount, converted by molar mass.

What was measured:
[1] = system: Mycobacterium tuberculosis; test: Antitubercular activity against Mycobacterium tuberculosis H37Rv ATCC 27294 after 5 days by microplate alamar blue assay; assay type: functional; settings: H37Rv ATCC 27294, 120 h
Salmonella typhimurium [2] = test: Genotoxicity in Salmonella typhimurium TA98 assessed as increase in revertant colonies at 0.5 uM preincubated for 20 mins followed by addition of top agar and minimal agar and measured after 72 hrs in presence of S9 metabolic activation system by Ames test relative to control; assay type: toxicity, organism-based; settings: salmonella enterica subsp. enterica serovar typhimurium
[3] = system: Mycobacterium tuberculosis; test: Potency index, ratio of ethambutol MIC to compound MIC for antitubercular activity against Mycobacterium tuberculosis H37Rv ATCC 27294; assay type: functional
[4] = system: Mycobacterium tuberculosis; test: Potency index, ratio of pyrazinamide MIC to compound MIC for antitubercular activity against Mycobacterium tuberculosis H37Rv ATCC 27294; assay type: functional
J774.A1 [5] = test: Cytotoxicity against mouse J774A.1 cells assessed as decrease in cell viability at 1 nM after 20 hrs by resazurin dye-based fluorimetric method; settings: j774.a1, 20 h, 0.001 µM
J774.A1 [6] = test: Cytotoxicity against mouse J774A.1 cells assessed as decrease in cell viability at 10 nM after 20 hrs by resazurin dye-based fluorimetric method; settings: j774.a1, 20 h, 0.01 µM
J774.A1 [7] = test: Cytotoxicity against mouse J774A.1 cells assessed as decrease in cell viability at 100 nM after 20 hrs by resazurin dye-based fluorimetric method; settings: j774.a1, 20 h, 0.1 µM
J774.A1 [8] = test: Cytotoxicity against mouse J774A.1 cells assessed as decrease in cell viability at 1 uM after 20 hrs by resazurin dye-based fluorimetric method; settings: j774.a1, 20 h
J774.A1 [9] = test: Cytotoxicity against mouse J774A.1 cells assessed as decrease in cell viability at 10 uM after 20 hrs by resazurin dye-based fluorimetric method; settings: j774.a1, 20 h
J774.A1 [10] = test: Cytotoxicity against mouse J774A.1 cells assessed as decrease in cell viability at 100 uM after 20 hrs by resazurin dye-based fluorimetric method; settings: j774.a1, 20 h
[11] = Cytotoxicity against human HepG2 cells after 3 hrs by WST-1 assay; assay type: cell-based; settings: read-out: LC50
[12] = Cytotoxicity against human HepG2 cells after 24 hrs by WST-1 assay; assay type: cell-based; settings: read-out: LC50
[13] = Selectivity index, ratio of LC50 for human HepG2 cells to MIC for Mycobacterium tuberculosis H37Rv ATCC 27294; assay type: toxicity; settings: read-out: Selectivity Index
Salmonella typhimurium [14] = test: Genotoxicity in Salmonella typhimurium TA98 assessed as increase in revertant colonies at 0.5 uM preincubated for 20 mins followed by addition of top agar and minimal agar and measured after 72 hrs in absence of S9 metabolic activation system by Ames test relative to control; assay type: toxicity, organism-based; settings: salmonella enterica subsp. enterica serovar typhimurium
Salmonella typhimurium [15] = test: Genotoxicity in Salmonella typhimurium TA98 assessed as increase in revertant colonies at 5 uM preincubated for 20 mins followed by addition of top agar and minimal agar and measured after 72 hrs in absence of S9 metabolic activation system by Ames test relative to control; assay type: toxicity, organism-based; settings: salmonella enterica subsp. enterica serovar typhimurium
Salmonella typhimurium [16] = test: Genotoxicity in Salmonella typhimurium TA98 assessed as increase in revertant colonies at 50 uM preincubated for 20 mins followed by addition of top agar and minimal agar and measured after 72 hrs in absence of S9 metabolic activation system by Ames test relative to control; assay type: toxicity, organism-based; settings: salmonella enterica subsp. enterica serovar typhimurium
Salmonella typhimurium [17] = test: Genotoxicity in Salmonella typhimurium TA98 assessed as increase in revertant colonies at 500 uM preincubated for 20 mins followed by addition of top agar and minimal agar and measured after 72 hrs in absence of S9 metabolic activation system by Ames test relative to control; assay type: toxicity, organism-based; settings: salmonella enterica subsp. enterica serovar typhimurium
Salmonella typhimurium [18] = test: Genotoxicity in Salmonella typhimurium TA98 assessed as increase in revertant colonies at 5000 uM preincubated for 20 mins followed by addition of top agar and minimal agar and measured after 72 hrs in absence of S9 metabolic activation system by Ames test relative to control; assay type: toxicity, organism-based; settings: salmonella enterica subsp. enterica serovar typhimurium
Salmonella typhimurium [19] = test: Genotoxicity in Salmonella typhimurium TA100 assessed as increase in revertant colonies at 0.5 uM preincubated for 20 mins followed by addition of top agar and minimal agar and measured after 72 hrs in absence of S9 metabolic activation system by Ames test relative to control; assay type: toxicity, organism-based; settings: salmonella enterica subsp. enterica serovar typhimurium
Salmonella typhimurium [20] = test: Genotoxicity in Salmonella typhimurium TA100 assessed as increase in revertant colonies at 5 uM preincubated for 20 mins followed by addition of top agar and minimal agar and measured after 72 hrs in absence of S9 metabolic activation system by Ames test relative to control; assay type: toxicity, organism-based; settings: salmonella enterica subsp. enterica serovar typhimurium
Salmonella typhimurium [21] = test: Genotoxicity in Salmonella typhimurium TA100 assessed as increase in revertant colonies at 50 uM preincubated for 20 mins followed by addition of top agar and minimal agar and measured after 72 hrs in absence of S9 metabolic activation system by Ames test relative to control; assay type: toxicity, organism-based; settings: salmonella enterica subsp. enterica serovar typhimurium
Salmonella typhimurium [22] = test: Genotoxicity in Salmonella typhimurium TA100 assessed as increase in revertant colonies at 500 uM preincubated for 20 mins followed by addition of top agar and minimal agar and measured after 72 hrs in absence of S9 metabolic activation system by Ames test relative to control; assay type: toxicity, organism-based; settings: salmonella enterica subsp. enterica serovar typhimurium
Salmonella typhimurium [23] = test: Genotoxicity in Salmonella typhimurium TA100 assessed as increase in revertant colonies at 5000 uM preincubated for 20 mins followed by addition of top agar and minimal agar and measured after 72 hrs in absence of S9 metabolic activation system by Ames test relative to control; assay type: toxicity, organism-based; settings: salmonella enterica subsp. enterica serovar typhimurium
Salmonella typhimurium [24] = test: Genotoxicity in Salmonella typhimurium TA98 assessed as increase in revertant colonies at 5 uM preincubated for 20 mins followed by addition of top agar and minimal agar and measured after 72 hrs in presence of S9 metabolic activation system by Ames test relative to control; assay type: toxicity, organism-based; settings: salmonella enterica subsp. enterica serovar typhimurium
Salmonella typhimurium [25] = test: Genotoxicity in Salmonella typhimurium TA98 assessed as increase in revertant colonies at 50 uM preincubated for 20 mins followed by addition of top agar and minimal agar and measured after 72 hrs in presence of S9 metabolic activation system by Ames test relative to control; assay type: toxicity, organism-based; settings: salmonella enterica subsp. enterica serovar typhimurium
Salmonella typhimurium [26] = test: Genotoxicity in Salmonella typhimurium TA98 assessed as increase in revertant colonies at 500 uM preincubated for 20 mins followed by addition of top agar and minimal agar and measured after 72 hrs in presence of S9 metabolic activation system by Ames test relative to control; assay type: toxicity, organism-based; settings: salmonella enterica subsp. enterica serovar typhimurium
Salmonella typhimurium [27] = test: Genotoxicity in Salmonella typhimurium TA98 assessed as increase in revertant colonies at 5000 uM preincubated for 20 mins followed by addition of top agar and minimal agar and measured after 72 hrs in presence of S9 metabolic activation system by Ames test relative to control; assay type: toxicity, organism-based; settings: salmonella enterica subsp. enterica serovar typhimurium
Salmonella typhimurium [28] = test: Genotoxicity in Salmonella typhimurium TA100 assessed as increase in revertant colonies at 0.5 uM preincubated for 20 mins followed by addition of top agar and minimal agar and measured after 72 hrs in presence of S9 metabolic activation system by Ames test relative to control; assay type: toxicity, organism-based; settings: salmonella enterica subsp. enterica serovar typhimurium
Salmonella typhimurium [29] = test: Genotoxicity in Salmonella typhimurium TA100 assessed as increase in revertant colonies at 5 uM preincubated for 20 mins followed by addition of top agar and minimal agar and measured after 72 hrs in presence of S9 metabolic activation system by Ames test relative to control; assay type: toxicity, organism-based; settings: salmonella enterica subsp. enterica serovar typhimurium
Salmonella typhimurium [30] = test: Genotoxicity in Salmonella typhimurium TA100 assessed as increase in revertant colonies at 50 uM preincubated for 20 mins followed by addition of top agar and minimal agar and measured after 72 hrs in presence of S9 metabolic activation system by Ames test relative to control; assay type: toxicity, organism-based; settings: salmonella enterica subsp. enterica serovar typhimurium
Salmonella typhimurium [31] = test: Genotoxicity in Salmonella typhimurium TA100 assessed as increase in revertant colonies at 500 uM preincubated for 20 mins followed by addition of top agar and minimal agar and measured after 72 hrs in presence of S9 metabolic activation system by Ames test relative to control; assay type: toxicity, organism-based; settings: salmonella enterica subsp. enterica serovar typhimurium
Salmonella typhimurium [32] = test: Genotoxicity in Salmonella typhimurium TA100 assessed as increase in revertant colonies at 5000 uM preincubated for 20 mins followed by addition of top agar and minimal agar and measured after 72 hrs in presence of S9 metabolic activation system by Ames test relative to control; assay type: toxicity, organism-based; settings: salmonella enterica subsp. enterica serovar typhimurium

## CC(=O)Nc1ccc(C)cc1C(F)(F)C(=O)NNc1ccccc1
[1]
  MIC: > 300 µM

## CC(=O)Nc1ccccc1C(F)(F)C(=O)NNC(=O)c1ccncc1
[1]
  MIC: 3.59 µM (≈ 1.25 µg/mL)

## CC(=O)Nc1ccc(C)cc1C(=O)C(=O)NNC(=O)c1ccncc1
Salmonella typhimurium [2]
  fold change (FC): 1
[1]
  MIC: 0.45 µM (≈ 0.153 µg/mL)
[3]
  Ratio: 30
[4]
  Ratio: 1800
J774.A1 [5]
  Activity: 100%
J774.A1 [6]
  Activity: 100%
J774.A1 [7]
  Activity: 99.5%
J774.A1 [8]
  Activity: 99.2%
J774.A1 [9]
  Activity: 98.2%
J774.A1 [10]
  Activity: 94%
[11]
  CC50 at 3 h: > 200 µM
[12]
  CC50 at 24 h: > 200 µM
[13]
  selectivity ratio: > 444
Salmonella typhimurium [14]
  fold change (FC): 1.2
Salmonella typhimurium [15]
  fold change (FC): 1.6
Salmonella typhimurium [16]
  fold change (FC): 1.8
Salmonella typhimurium [17]
  fold change (FC): 1.9
Salmonella typhimurium [18]
  fold change (FC): 3.4
Salmonella typhimurium [19]
  fold change (FC): 1.2
Salmonella typhimurium [20]
  fold change (FC): 1.2
Salmonella typhimurium [21]
  fold change (FC): 1.4
Salmonella typhimurium [22]
  fold change (FC): 1.4
Salmonella typhimurium [23]
  fold change (FC): 1.6
Salmonella typhimurium [24]
  fold change (FC): 1.7
Salmonella typhimurium [25]
  fold change (FC): 1.8
Salmonella typhimurium [26]
  fold change (FC): 3.4
Salmonella typhimurium [27]
  fold change (FC): 4
Salmonella typhimurium [28]
  fold change (FC): 1.1
Salmonella typhimurium [29]
  fold change (FC): 1.5
Salmonella typhimurium [30]
  Activity: Toxic

## CC(=O)Nc1ccc(Cl)cc1C(F)(F)C(=O)NNC(=O)c1ccncc1
[1]
  MIC: 16.4 µM (≈ 6.27 µg/mL)

## CC(=O)Nc1ccccc1C(=O)C(=O)NNC(=O)c1ccncc1
Salmonella typhimurium [2]
  fold change (FC): 1.1
[1]
  MIC: 0.47 µM (≈ 0.153 µg/mL)
[3]
  Ratio: 30
[4]
  Ratio: 1800
J774.A1 [5]
  Activity: 99.6%
J774.A1 [6]
  Activity: 98.7%
J774.A1 [7]
  Activity: 97.7%
J774.A1 [8]
  Activity: 99.5%
J774.A1 [9]
  Activity: 97.1%
J774.A1 [10]
  Activity: 93.3%
[11]
  CC50 at 3 h: > 200 µM
[12]
  CC50 at 24 h: 31.5 µM
[13]
  selectivity ratio: 67
Salmonella typhimurium [14]
  fold change (FC): 1
Salmonella typhimurium [15]
  fold change (FC): 1.1
Salmonella typhimurium [16]
  fold change (FC): 1.2
Salmonella typhimurium [17]
  fold change (FC): 1.3
Salmonella typhimurium [18]
  fold change (FC): 1.3
Salmonella typhimurium [19]
  fold change (FC): 1
Salmonella typhimurium [20]
  fold change (FC): 1.3
Salmonella typhimurium [21]
  fold change (FC): 1.3
Salmonella typhimurium [22]
  fold change (FC): 1.3
Salmonella typhimurium [23]
  fold change (FC): 1.4
Salmonella typhimurium [24]
  fold change (FC): 1.1
Salmonella typhimurium [25]
  fold change (FC): 1.6
Salmonella typhimurium [26]
  fold change (FC): 2
Salmonella typhimurium [27]
  fold change (FC): 2.5
Salmonella typhimurium [28]
  fold change (FC): 1.1
Salmonella typhimurium [29]
  fold change (FC): 1.1
Salmonella typhimurium [30]
  fold change (FC): 1.2
Salmonella typhimurium [31]
  fold change (FC): 1.2
Salmonella typhimurium [32]
  fold change (FC): 1.3

## CO[C@H]1/C=C/O[C@@]2(C)Oc3c(C)c(O)c4c(O)c(c(/C=N/N5CCN(C)CC5)c(O)c4c3C2=O)NC(=O)/C(C)=C\C=C\[C@H](C)[C@H](O)[C@@H](C)[C@@H](O)[C@@H](C)[C@H](OC(C)=O)[C@@H]1C [RIFAMPIN]
[1]
  MIC: 1.22 µM (≈ 1 µg/mL)

## CC(=O)Nc1ccccc1C(F)(F)C(=O)NN=C1CCCCC1
[1]
  MIC: > 310 µM

## NC(=O)c1cnccn1 [PYRAZINAMIDE]
[1]
  MIC: 813 µM (≈ 100 µg/mL)

## CC[C@@H](CO)NCCN[C@@H](CC)CO [ETHAMBUTOL]
[1]
  MIC: 15.9 µM (≈ 3.25 µg/mL)

## CC(=O)Nc1ccccc1C(F)(F)C(=O)NNc1ccccn1
[1]
  MIC: > 312 µM

## CC(=O)Nc1ccc(F)cc1C(F)(F)C(=O)NNC(=O)c1ccncc1
[1]
  MIC: 17.1 µM (≈ 6.26 µg/mL)
